Source: patent US10493046B2, “5-hydroxytryptamine 1B receptor-stimulating agent for use as a promoter of satellite cells self-renewal and/or differentiation” (INSTITUT PASTEUR, priority 2015, dated 2019)

What was measured:
[1] = tested on: vessels; assay: Vessel number in tibialis anterior of treated mice (Flk1GFP/+ or CD31 immunostaining); type: in vivo, mouse; settings: GR127935 in osmotic pump together with vortioxetine I.P 12 days
[2] = tested on: vessels; assay: as above; type: in vivo, mouse
Experimental: Immunostaining was performed on cryosections fixed with 4% paraformaldehyde (PFA EMS#15710) in cold PBS, permeabilized with 0.5% Triton X-100 20 min at room temperature, washed, and blocked with 10% BSA for 30 min. Sections were incubated with primary antibodies overnight at 4° C. (see Table 1 below) and with Alexa-conjugated secondary antibodies 1/250 and Hoechst for 45 minutes. Sections were then analysed using an automated axioscan (Zeiss) or inverted Observer.Z1 Apotome (Zeiss). For apoptosis assessment, cells were collected in 2% serum, spun on polyD-lysine (Sigma-Aldrich#P6407), and immediately fixed with PFA 4%.
Throughout the study, focus was made on the tibialis anterior (TA). In skeletal muscle, SC are central for muscle repair. […] SC are localized close to capillaries and angiogenesis is known to be crucial for muscle repair SC survival with cellular interplays between vessel cells and SC. The number of vessels was therefore quantified. In control Flk1^GFP/+ mouse (placebo), the number of vessels was of 870±213.1 vessels per mm^2 and increased after 3 weeks of I.P treatment (1103±110.2 vessels per mm^2), and even more after 6 weeks (1384±175.3 vessels per mm^2, p=0.008) (FIG. 2e). Neovessels presented with normal histological appearance associating a basal lamina and a permeable lumen sometimes containing red blood cells. […] 841±137 CD31+ cells per mm^2 were counted in the placebo-treated mice vs. 2260±361 CD31+ cells per mm^2 in the fluoxetine-treated mice, p=0.008 (FIG. 2t-v), confirming the previous observation.
In order to investigate the effect of vortioxetine on vessels number, intra peritoneal (I.P) administration of 20 mg/kg of vortioxetine was performed for either 12 days, 3 or 6 weeks to C57Bl/6 mice (FIG. 10a). The number of CD31+ cells was counted by immunostaining. The number of vessels in the placebo is (863.5±115.6 vessels per mm^2) and increases after 12 days of I.P treatment (2274±926 vessels per mm^2, p=0.03), and even more after 3 weeks (2847±705 vessels per mm^2, p=0.02) (FIG. 10b). However, there was no statistically significant differences between 12 days and 3 weeks of treatment (p=0.49). Neovessels display a normal histological appearance associated with a basal lamina and a permeable lumen sometimes containing red blood cells. The daily administration of vortioxetine IP might cause unwanted peritoneal inflammation that could interfere with angiogenesis since inflammation and neovascularization are intertwined in some models. Vortioxetine was therefore administered per os (P.O) for 12 days: a similar increase in the number of vessels was observed (2451±595 vessels per mm^2 p=0.028, FIG. 10c). To further confirm those results, vortioxetine will be administered to Flk1^GFP/+ mice P.O and I.P for 12 days, and an ex vivo Matrigel angiogenesis assay and plasma from vortioxetine treated mice will be used on HUVEC (endothelial cells).

[3] = tested on: Mdx mice; assay: Grip strength test in mdx mice; type: in vivo, mouse; settings: fluoxetine treated mdx mice, 6 weeks; 4 limbs
Experimental: The grip strength test is a non-invasive method designed to evaluate mouse muscle force in vivo. A grip meter (Bio-GT3, BIOSEB), attached to a force transducer, measures the peak force generated. […] Five trials were conducted and, before statistical analysis, a mean value was calculated for each mouse using the tree median data. Results are expressed as the result of tree peak forces (in g), normalized to the body weight (in g).
(§1) This was confirmed on soleus muscle (data not shown).

[4] = tested on: cytokines; assay: Plasmatic cytokine levels by Luminex in Mdx mice; type: in vivo, mouse; settings: fluoxetine P.O. 6 weeks
Description: Snap frozen plasma samples (n=6 per condition) were thawed out, and supernatant was processed for Luminex® multiple cytokine and chemokine analysis (Bio-Plex® Pro™ Mouse Cytokine Standard 23-Plex, Group I and Standard 9-Plex, Group II). Normalization was done by sample weight of frozen muscle.

[5] = tested on: HUVEC; assay: In vitro HUVEC assay on cytodex beads in plasma of treated mice; type: cell-based, human; settings: plasma from mice treated P.O 6 weeks; 4 days post plating
Experimental: C57Bl/6 mice were treated P.O for 6 weeks and plasma was extracted from blood. HUVEC cells were then plated on cytodex beads and cultured in either of the plasma. The growth of HUVEC incubated with plasma coming from treated animals was faster 4 days post plating (p≤0.0001) (FIGS. 2m-o).

[6] = tested on: extensor digitorum longus (edl) fibers; assay: Tension of isolated muscle fibers of mdx mice; type: in vivo, mouse; settings: fluoxetine treated mdx mice
Experimental: Small bundles of two to five fibers were manually isolated from the muscles as previously described. Chemical skinning was carried out using Triton X-100. Skinned fibers were mounted in the Displacement Measuring System KD 2300 (model 0.5 SU, Kaman Instrumentation, Colorado Springs, Colo., USA). To perform force measurements, skinned fiber preparations were incubated for 1 h in relaxing solution (pCa 9.0, low calcium content) containing 1% Triton X-100 (v/v) to solubilize the sarcolemma and the sarcoplasmic reticulum membranes, and were subsequently washed several times in relaxing solution without detergent. Fibres were adjusted to slack length and then stretched progressively until the tension developed became maximal. Isometric tension was recorded continuously using a chart recorder (model 1200, Linear, Reno, Nev., USA). The tension obtained was normalized to fibre cross-sectional area.
as §1

[7] = tested on: primary human myoblasts; assay: Primary human myoblasts plated in plasma from treated mice; type: cell-based; settings: plasma from fluoxetine-treated mice
[8] = tested on: cytokines; assay: Plasmatic cytokine levels by Luminex in treated mice; design: species or system mouse; settings: fluoxetine 6 weeks in vivo; vs placebo
Description: Snap frozen plasma samples (n=6 per condition) were thawed out, and supernatant was processed for Luminex® multiple cytokine and chemokine analysis (Bio-Plex® Pro™ Mouse Cytokine Standard 23-Plex, Group I and Standard 9-Plex, Group II). Normalization was done by sample weight of frozen muscle. […]

[9] = tested on: serotonin receptors subtypes; assay: RT-qPCR of serotonin receptor subtypes in FACS-sorted muscle cells after treatment; type: in vivo, mouse; settings: 6 weeks P.O fluoxetine; FACS-sorted endothelial cells
Experimental: Total RNA was isolated from cells using the RNAeasy Micro kit (Qiagen). The total RNA was reverse-transcribed using Superscript® III Reverse transcriptase (Invitrogen). Real-time quantitative PCR was performed using Power Sybr Green PCR Master Mix (Applied Biosystems) and the rate of dye incorporation was monitored using the StepOne™ Plus RealTime PCR system (Applied Biosystems). At least three biological replicates were used for each condition. Data were analyzed by StepOne Plus RT PCR software v2.1 and Microsoft excel. GAPDH transcript levels were used for normalisation of each target (=ΔCT). Real-time PCR CT values were analyzed using the 2-(ΔΔCt) method to calculate the fold expression (ΔΔCTmethod, Livak et al., 2001).
RT-qPCR was then performed on serotonin receptors subtypes to further characterize by which the endothelial cells could be activated (FIG. 5b). […] The same observation was made in FACS cell-sorted SC from Tg:Pax7nGFP mice (FIG. 5b).

SMILES | Number of vessels [1] | Number of vessels ([2]; GR127935 in osmotic pump together with fluoxetine P.O 6 weeks, Flk1GFP/+ mice) | Total muscle force increase [3] | Level of IL6 [4] | Level of IL10 [4] | Growth of HUVEC vs placebo plasma [5] | Force increase of isolated single fibers of extensor digitorum longus (edl) [6] | Differentiation 4 days post-plating vs placebo plasma [7] | Self-renewal of the cells 14 days post-plating vs placebo plasma [7] | Levels of IL-1a, IL-1b, IL-2 and eotaxin [8] | Levels of IL-4 and IL-13 [8] | Expression of other subtypes (5-HT1 AR, 5-HT1 DR, 5-HT1 FR, 5-HT2 AR, 5-HT2 CR) [9] | Number of vessels ([2]; fluoxetine 18 mg/kg I.P, 3 weeks, Flk1GFP/+ mouse) | Number of vessels ([2]; fluoxetine 18 mg/kg I.P, 6 weeks, Flk1GFP/+ mouse) | Number of vessels ([2]; fluoxetine P.O 6 weeks and PBS in osmotic pump, Flk1GFP/+ mice) | CD31+ cells on cryo-sectioned TA ([2]; fluoxetine P.O, 6 weeks, C57Bl/6 mice) | Number of vessels ([2]; fluoxetine P.O, 6 weeks, Flk1GFP/+ mouse)
COc1ccc(NC(=O)c2ccc(-c3ccc(-c4noc(C)n4)cc3C)cc2)cc1N1CCN(C)CC1 [GR127935] | 928±207 vessels per mm^2 | 1028±173 vessels per mm^2 | – | – | – | – | – | – | – | – | – | – | – | – | – | – | –
CNCCC(Oc1ccc(C(F)(F)F)cc1)c1ccccc1 (centres unmarked) [fluoxetine] | – | – | 56% | 34.52 ± 21 pg/mL | 99.6 ± 56 pg/mL | faster | 45% | faster differentiation | higher self-renewal | downregulated | upregulated | non-statistically significant increase | 1103±110.2 vessels per mm^2 | 1384±175.3 vessels per mm^2 | 1949±576 vessels per mm^2 | 2260±361 CD31+ cells per mm^2 | 1256±62.2 vessels per mm^2
